Test results reported in ChEMBL document CHEMBL2177010, “Discovery and preclinical pharmacology of a selective ATP-competitive Akt inhibitor (GDC-0068) for the treatment of human tumors” (J Med Chem, 2012).
pIC50: −log10 of the molar value.

Test system: not listed separately
Assay: Competitive inhibition of PKA expressed in Escherichia coli assessed as fluorescence labeled peptide substrate phosphorylation after 60 mins in presence of ATP
Settings: not given

Q: With `CC(C)NC[C@@H](C(=O)N1CCN(c2ncnc3c2[C@H](C)C[C@@H]3O)CC1)c1ccc(Cl)cc1` as the molecule, how does the pIC50 read?
A: Its pIC50 is 5.81.

Q: With `C[C@@H]1C[C@@H](O)c2ncnc(N3CCN(C(=O)[C@H](CN4CCC(F)CC4)c4ccc(Cl)cc4)CC3)c21` as the molecule, how does the pIC50 read?
A: Its pIC50 is 5.92.

Q: With `C[C@@H]1C[C@@H](O)c2ncnc(N3CCN(C(=O)[C@@H](c4ccc(Cl)cc4)[C@@H]4CCCN4)CC3)c21` as the molecule, how does the pIC50 read?
A: Its pIC50 is 6.57.

Q: With `CC(C)NC[C@@H](C(=O)N1CCN(c2ncnc3c2[C@H](CO)CC3)CC1)c1ccc(Cl)cc1` as the molecule, how does the pIC50 read?
A: The pIC50 was 6.02.

Q: With `C[C@@H]1C[C@@H](O)c2ncnc(N3CCN(C(=O)[C@H](CN)c4ccc(Cl)cc4)CC3)c21` as the molecule, how does the pIC50 read?
A: Its pIC50 is 6.15.

Q: With `C[C@@H]1C[C@@H](O)c2ncnc(N3CCN(C(=O)[C@H](CNC4CCOCC4)c4ccc(Cl)cc4)CC3)c21` as the molecule, how does the pIC50 read?
A: Its pIC50 is 6.18.

Q: With `CC(C)NC[C@@H](C(=O)N1CCN(c2ncnc3c2[C@H](C)C[C@H]3F)CC1)c1ccc(Cl)cc1` as the molecule, how does the pIC50 read?
A: The pIC50 was 7.77.

Q: With `C[C@@H]1C[C@@H](O)c2ncnc(N3CCN(C(=O)[C@H](CNCCF)c4ccc(Cl)cc4)CC3)c21` as the molecule, how does the pIC50 read?
A: Its pIC50 is 5.88.

Q: With `CC(C)NC[C@@H](C(=O)N1CCN(c2ncnc3c2[C@H](C)C[C@H]3O)CC1)c1ccc(Cl)c(F)c1` as the molecule, how does the pIC50 read?
A: The pIC50 was 6.31.

Q: With `CC(C)NC[C@@H](C(=O)N1CCN(c2ncnc3c2[C@H](CF)CC3)CC1)c1ccc(Cl)cc1` as the molecule, how does the pIC50 read?
A: The pIC50 was 7.46.

Q: With `C[C@@H]1C[C@@H](O)c2ncnc(N3CCN(C(=O)[C@H](CNCC4CC4)c4ccc(Cl)cc4)CC3)c21` as the molecule, how does the pIC50 read?
A: Its pIC50 is 6.11.

Q: With `C[C@@H]1C[C@@H](O)c2ncnc(N3CCN(C(=O)[C@H](CNC4CCOCC4)c4ccc(Cl)c(F)c4)CC3)c21` as the molecule, how does the pIC50 read?
A: Its pIC50 is 6.25.

Q: With `CC(C)NC[C@@H](C(=O)N1CCN(c2ncnc3c2[C@H](C)CC3)CC1)c1ccc(Cl)cc1` as the molecule, how does the pIC50 read?
A: The pIC50 was 7.48.

Q: With `C[C@@H]1C[C@@H](O)c2ncnc(N3CCN(C(=O)[C@@H](c4ccc(Cl)cc4)[C@@H]4CCCCN4)CC3)c21` as the molecule, how does the pIC50 read?
A: Its pIC50 is 5.80.

Q: With `C=C[C@@H]1CCc2ncnc(N3CCN(C(=O)[C@H](CNC(C)C)c4ccc(Cl)cc4)CC3)c21` as the molecule, how does the pIC50 read?
A: Its pIC50 is 8.00.

Q: With `C[C@@H]1C[C@@H](O)c2ncnc(N3CCN(C(=O)[C@H](CNC(C)(C)CO)c4ccc(Cl)cc4)CC3)c21` as the molecule, how does the pIC50 read?
A: Its pIC50 is 6.53.

Test system: not listed separately
Assay: Permeability across apical to basolateral side in human Caco2 cells
Type: ADME, cell-based
Settings: Caco-2, read-out: permeability

Q: With `CC(C)NC[C@@H](C(=O)N1CCN(c2ncnc3c2[C@H](C)CC3)CC1)c1ccc(Cl)cc1` as the molecule, how does the Papp A→B read?
A: Its Papp A→B is 13.2 ×10⁻⁶ cm/s.

Test system: not listed separately
Assay: Permeability across basolateral to apical side in human Caco2 cells
Type: ADME, cell-based
Settings: Caco-2, read-out: permeability

Q: With `CC(C)NC[C@@H](C(=O)N1CCN(c2ncnc3c2[C@H](C)CC3)CC1)c1ccc(Cl)cc1` as the molecule, how does the Papp B→A read?
A: The Papp B→A was 19.2 ×10⁻⁶ cm/s.

Target: T1, RAC-alpha serine/threonine-protein kinase (Homo sapiens, UniProt P31749)
T1 sequence (P31749 whole entry): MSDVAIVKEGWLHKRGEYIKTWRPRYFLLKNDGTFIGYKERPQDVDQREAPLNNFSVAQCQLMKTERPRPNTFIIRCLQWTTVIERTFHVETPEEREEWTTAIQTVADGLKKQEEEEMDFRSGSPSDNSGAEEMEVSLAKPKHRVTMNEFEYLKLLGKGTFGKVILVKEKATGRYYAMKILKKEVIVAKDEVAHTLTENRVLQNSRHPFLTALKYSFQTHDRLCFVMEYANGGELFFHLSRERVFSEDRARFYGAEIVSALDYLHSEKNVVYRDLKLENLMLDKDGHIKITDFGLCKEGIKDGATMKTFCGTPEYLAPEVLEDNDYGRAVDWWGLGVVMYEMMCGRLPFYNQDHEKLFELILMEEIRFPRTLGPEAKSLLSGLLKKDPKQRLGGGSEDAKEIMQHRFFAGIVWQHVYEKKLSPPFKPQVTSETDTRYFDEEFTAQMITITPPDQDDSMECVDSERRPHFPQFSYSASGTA
Settings: not given

Q: With `C[C@@H]1C[C@@H](O)c2ncnc(N3CCN(C(=O)[C@H](CN4CCC(F)CC4)c4ccc(Cl)cc4)CC3)c21` as the molecule, how does the pIC50 read?
A: Its pIC50 is 8.22.

Q: With `C[C@@H]1C[C@@H](O)c2ncnc(N3CCN(C(=O)[C@@H](c4ccc(Cl)cc4)[C@@H]4CCCN4)CC3)c21` as the molecule, how does the pIC50 read?
A: The pIC50 was 8.52.

Q: With `CC(C)NC[C@@H](C(=O)N1CCN(c2ncnc3c2[C@H](CO)CC3)CC1)c1ccc(Cl)cc1` as the molecule, how does the pIC50 read?
A: The pIC50 was 7.09.

Q: With `C[C@@H]1C[C@@H](O)c2ncnc(N3CCN(C(=O)[C@H](CN)c4ccc(Cl)cc4)CC3)c21` as the molecule, how does the pIC50 read?
A: Its pIC50 is 7.62.

Q: With `C[C@@H]1C[C@@H](O)c2ncnc(N3CCN(C(=O)[C@H](CNCCF)c4ccc(Cl)cc4)CC3)c21` as the molecule, how does the pIC50 read?
A: The pIC50 was 7.92.

Q: With `CC(C)NC[C@@H](C(=O)N1CCN(c2ncnc3c2[C@H](C)C[C@H]3O)CC1)c1ccc(Cl)c(F)c1` as the molecule, how does the pIC50 read?
A: Its pIC50 is 8.52.

Q: With `CC(C)NC[C@@H](C(=O)N1CCN(c2ncnc3c2[C@H](CF)CC3)CC1)c1ccc(Cl)cc1` as the molecule, how does the pIC50 read?
A: The pIC50 was 8.52.

Q: With `C[C@@H]1C[C@@H](O)c2ncnc(N3CCN(C(=O)[C@H](CNC4CCOCC4)c4ccc(Cl)c(F)c4)CC3)c21` as the molecule, how does the pIC50 read?
A: Its pIC50 is 7.92.

Q: With `CC(C)NC[C@@H](C(=O)N1CCN(c2ncnc3c2[C@H](C)CC3)CC1)c1ccc(Cl)cc1` as the molecule, how does the pIC50 read?
A: Its pIC50 is 8.22.

Q: With `C[C@@H]1C[C@@H](O)c2ncnc(N3CCN(C(=O)[C@@H](c4ccc(Cl)cc4)[C@@H]4CCCCN4)CC3)c21` as the molecule, how does the pIC50 read?
A: The pIC50 was 8.05.

Q: With `C=C[C@@H]1CCc2ncnc(N3CCN(C(=O)[C@H](CNC(C)C)c4ccc(Cl)cc4)CC3)c21` as the molecule, how does the pIC50 read?
A: The pIC50 was 8.70.

Q: With `C[C@@H]1C[C@@H](O)c2ncnc(N3CCN(C(=O)[C@H](CNC(C)(C)CO)c4ccc(Cl)cc4)CC3)c21` as the molecule, how does the pIC50 read?
A: The pIC50 was 8.70.

Target: T1, RAC-alpha serine/threonine-protein kinase
Settings: not given
Remark: another data set of the same source

Q: With `C[C@@H]1C[C@@H](O)c2ncnc(N3CCN(C(=O)[C@H](CN4CCC(F)CC4)c4ccc(Cl)cc4)CC3)c21` as the molecule, how does the pIC50 read?
A: The pIC50 was 6.71.

Q: With `C[C@@H]1C[C@@H](O)c2ncnc(N3CCN(C(=O)[C@@H](c4ccc(Cl)cc4)[C@@H]4CCCN4)CC3)c21` as the molecule, how does the pIC50 read?
A: The pIC50 was 6.62.

Q: With `CC(C)NC[C@@H](C(=O)N1CCN(c2ncnc3c2[C@H](CO)CC3)CC1)c1ccc(Cl)cc1` as the molecule, how does the pIC50 read?
A: Its pIC50 is 6.07.

Q: With `C[C@@H]1C[C@@H](O)c2ncnc(N3CCN(C(=O)[C@H](CN)c4ccc(Cl)cc4)CC3)c21` as the molecule, how does the pIC50 read?
A: Its pIC50 is 5.84.

Q: With `C[C@@H]1C[C@@H](O)c2ncnc(N3CCN(C(=O)[C@H](CNCCF)c4ccc(Cl)cc4)CC3)c21` as the molecule, how does the pIC50 read?
A: Its pIC50 is 5.89.

Q: With `CC(C)NC[C@@H](C(=O)N1CCN(c2ncnc3c2[C@H](C)C[C@H]3O)CC1)c1ccc(Cl)c(F)c1` as the molecule, how does the pIC50 read?
A: The pIC50 was 6.63.

Q: With `CC(C)NC[C@@H](C(=O)N1CCN(c2ncnc3c2[C@H](CF)CC3)CC1)c1ccc(Cl)cc1` as the molecule, how does the pIC50 read?
A: The pIC50 was 6.91.

Q: With `C[C@@H]1C[C@@H](O)c2ncnc(N3CCN(C(=O)[C@H](CNC4CCOCC4)c4ccc(Cl)c(F)c4)CC3)c21` as the molecule, how does the pIC50 read?
A: The pIC50 was 6.86.

Q: With `CC(C)NC[C@@H](C(=O)N1CCN(c2ncnc3c2[C@H](C)CC3)CC1)c1ccc(Cl)cc1` as the molecule, how does the pIC50 read?
A: Its pIC50 is 6.54.

Q: With `C[C@@H]1C[C@@H](O)c2ncnc(N3CCN(C(=O)[C@@H](c4ccc(Cl)cc4)[C@@H]4CCCCN4)CC3)c21` as the molecule, how does the pIC50 read?
A: The pIC50 was 6.28.

Q: With `C=C[C@@H]1CCc2ncnc(N3CCN(C(=O)[C@H](CNC(C)C)c4ccc(Cl)cc4)CC3)c21` as the molecule, how does the pIC50 read?
A: Its pIC50 is 6.75.

Q: With `C[C@@H]1C[C@@H](O)c2ncnc(N3CCN(C(=O)[C@H](CNC(C)(C)CO)c4ccc(Cl)cc4)CC3)c21` as the molecule, how does the pIC50 read?
A: Its pIC50 is 7.12.

Target: RAC-gamma serine/threonine-protein kinase (Homo sapiens, UniProt Q9Y243)
Sequence (Q9Y243 whole entry): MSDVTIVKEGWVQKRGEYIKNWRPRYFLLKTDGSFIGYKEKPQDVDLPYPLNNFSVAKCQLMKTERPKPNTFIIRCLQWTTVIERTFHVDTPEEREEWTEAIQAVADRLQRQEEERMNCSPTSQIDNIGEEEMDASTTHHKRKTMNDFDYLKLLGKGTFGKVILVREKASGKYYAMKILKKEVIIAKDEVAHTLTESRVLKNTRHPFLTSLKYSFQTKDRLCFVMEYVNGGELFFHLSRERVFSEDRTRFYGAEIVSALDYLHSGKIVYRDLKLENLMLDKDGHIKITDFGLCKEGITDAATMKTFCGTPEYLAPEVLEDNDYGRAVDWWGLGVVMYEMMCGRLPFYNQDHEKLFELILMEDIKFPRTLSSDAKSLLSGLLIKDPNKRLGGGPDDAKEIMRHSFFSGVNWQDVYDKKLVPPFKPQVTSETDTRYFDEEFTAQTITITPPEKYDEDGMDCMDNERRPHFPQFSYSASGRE
Settings: not given

Q: With `C[C@@H]1C[C@@H](O)c2ncnc(N3CCN(C(=O)[C@@H](c4ccc(Cl)cc4)[C@@H]4CCCN4)CC3)c21` as the molecule, how does the pIC50 read?
A: The pIC50 was 8.30.

Q: With `CC(C)NC[C@@H](C(=O)N1CCN(c2ncnc3c2[C@H](CO)CC3)CC1)c1ccc(Cl)cc1` as the molecule, how does the pIC50 read?
A: Its pIC50 is 7.08.

Q: With `C[C@@H]1C[C@@H](O)c2ncnc(N3CCN(C(=O)[C@H](CN)c4ccc(Cl)cc4)CC3)c21` as the molecule, how does the pIC50 read?
A: Its pIC50 is 7.35.

Q: With `CC(C)NC[C@@H](C(=O)N1CCN(c2ncnc3c2[C@H](C)C[C@H]3F)CC1)c1ccc(Cl)cc1` as the molecule, how does the pIC50 read?
A: The pIC50 was 8.00.

Q: With `C[C@@H]1C[C@@H](O)c2ncnc(N3CCN(C(=O)[C@H](CNCCF)c4ccc(Cl)cc4)CC3)c21` as the molecule, how does the pIC50 read?
A: Its pIC50 is 7.68.

Q: With `CC(C)NC[C@@H](C(=O)N1CCN(c2ncnc3c2[C@H](C)C[C@H]3O)CC1)c1ccc(Cl)c(F)c1` as the molecule, how does the pIC50 read?
A: The pIC50 was 8.15.

Q: With `CC(C)NC[C@@H](C(=O)N1CCN(c2ncnc3c2[C@H](CF)CC3)CC1)c1ccc(Cl)cc1` as the molecule, how does the pIC50 read?
A: The pIC50 was 8.30.

Q: With `C[C@@H]1C[C@@H](O)c2ncnc(N3CCN(C(=O)[C@H](CNC4CCOCC4)c4ccc(Cl)c(F)c4)CC3)c21` as the molecule, how does the pIC50 read?
A: Its pIC50 is 7.92.

Q: With `CC(C)NC[C@@H](C(=O)N1CCN(c2ncnc3c2[C@H](C)CC3)CC1)c1ccc(Cl)cc1` as the molecule, how does the pIC50 read?
A: Its pIC50 is 8.30.

Q: With `C[C@@H]1C[C@@H](O)c2ncnc(N3CCN(C(=O)[C@@H](c4ccc(Cl)cc4)[C@@H]4CCCCN4)CC3)c21` as the molecule, how does the pIC50 read?
A: The pIC50 was 7.92.

Q: With `C=C[C@@H]1CCc2ncnc(N3CCN(C(=O)[C@H](CNC(C)C)c4ccc(Cl)cc4)CC3)c21` as the molecule, how does the pIC50 read?
A: The pIC50 was 9.00.

Q: With `C[C@@H]1C[C@@H](O)c2ncnc(N3CCN(C(=O)[C@H](CNC(C)(C)CO)c4ccc(Cl)cc4)CC3)c21` as the molecule, how does the pIC50 read?
A: The pIC50 was 8.52.
